Test [1] relates to rats with MCAO. Put plainly: Neurological deficit (mNSS) in MCAO model. In kind it is in vivo, Wistar rats. The following applies: 24 h to day 7. As to the method:
A MCAO animal model was used to characterize the effects of compound 1 on the development and resolution of stroke. At the baseline, we performed the MRI and hole-board test before MCAO surgery. Once animals recovered after the surgery, we stratified them based on their background psycho-emotional status and performed a control MRI to access whether the occlusion was sufficient or not. […] From 24 h to day 7, the neurological status was assessed daily according to the neurological scale (mNSS). By the end of day 7, animals underwent MRI. In addition, MRI was performed on days 14 and 28 (Shceme 3)The hole-board test was repeated on days 10 and 24. The degree of motor function impairment, the deficit of exploratory behavior, and the recovery process were assessed in the beam walking test (BWT), which was performed twice on days 12 and 14. An open field test was carried out on days 16 and 26. […]
In the first experimental series, the following test systems were used: HBT (OpenScience, Russia), OFT (OpenScience), and LDT (OpenScience). […] All rat behavioral changes were evaluated during the four weeks after stroke simulation. […] General neurological disorders were assessed using the modified neurological severity score (mNSS). Motor and cognitive impairment were evaluated using the following functional tests: BWT (OpenScience), HBT (OpenScience), and OFT (OpenScience). […]

Test [2] has as its system rats with MCAO. Put plainly: Cerebral infarct volume by MRI in transient MCAO model. The note with it: for Infarct volume at 24 h: 24 h after MCAO, before treatment (group baseline); for Infarct volume by day 28: day 28 after MCAO, compound 1 125 mg kg^−1, piracetam 300 mg kg^−1 daily from 24 h to day 5, p = 0.17. In kind it is in vivo, Wistar rats. As to the method:
A MCAO animal model was used to characterize the effects of compound 1 on the development and resolution of stroke. At the baseline, we performed the MRI and hole-board test before MCAO surgery. Once animals recovered after the surgery, we stratified them based on their background psycho-emotional status and performed a control MRI to access whether the occlusion was sufficient or not. […] From 24 h to day 7, the neurological status was assessed daily according to the neurological scale (mNSS). By the end of day 7, animals underwent MRI. In addition, MRI was performed on days 14 and 28 (Shceme 3)The hole-board test was repeated on days 10 and 24. The degree of motor function impairment, the deficit of exploratory behavior, and the recovery process were assessed in the beam walking test (BWT), which was performed twice on days 12 and 14. An open field test was carried out on days 16 and 26.
Before conducting the experiments, the animals underwent the HBT and were allocated to groups based on their behavior score and weight. Kullback–Leibler divergence method for allocation based on two numerical parameters was used for allocation. We used a sum score for behavior tests and weight. Subsequently, two experimental series were performed. In the first series, rat behavior without stroke modeling after injection of compound 1 (experimental group, n = 10) or saline (control group, n = 10) was evaluated (Scheme 3a). […] Compound 1 was injected at a dose of 125 mg kg^−1 and an injection volume of 0.5 mL. […] For the experiments, the following predetermined exclusion criteria were used: (1) incomplete MCAO indicated by an incomplete lesion on magnetic resonance imaging (MRI) after 24 h [n = 4]and (2) post-operative weight loss of > 20% and severe animal condition within the first post-stroke 48 h [n = 3]. Animals reached humane endpoints based on the absence of nociceptive reflex withdrawal responses, hypothermia, and heart rate reduction to 100–150 beats min^−1. As steroid treatment could have influenced the experiment, rats were humanely euthanized according to the ethical protocol. The experiment design is presented in Scheme 3b.
The rats were anesthetized initially using 3% isoflurane and maintained with a mixture of 2–2.5% isoflurane and 97.5–98% atmospheric air (EZ-7000 Classic System, E-Z Anesthesia® Systems). […]
During the procedure, the rats were maintained under inhalation anesthesia as mentioned above. […] The volume of the hyperintensity ischemic stroke area was calculated by summing the areas of adjacent cross-sections using the following formula: Volume = (S1 + … + Sn) × (h + d), where S1, …, Sn are areas measured in n slices, h is the slice thickness, and d is the interval between slices.

Take `O=C(CN1CC(c2ccccc2)CC1=O)NCCS(=O)(=O)[O-].[K+]` (stereo not drawn) [Compound 1, potassium 2-[2-(2-oxo-4-phenylpyrrolidin-1-yl)acetamido]ethane-1-sulfonate]: in the test on rats with MCAO [1], the “Regression of neurological symptoms” value turned out to be 35%. For the same molecule, in the test with rats with MCAO [2], the “Infarct volume at 24 h” value came out at 133.6 ± 24.1 mm^3 and the “Infarct volume by day 28” value was 91.2 ± 18.9 mm^3.
For the molecule `NC(=O)CN1CCCC1=O` [Piracetam, reference compound], the “Regression of neurological symptoms” value in the test on rats with MCAO [1] is 25%. For the same molecule, in the test with rats with MCAO [2], the “Infarct volume at 24 h” value stood at 128.5 ± 15.5 mm^3 and the “Infarct volume by day 28” value was 86.0 ± 13.5 mm^3.

Source of the values: article PMC8541353, “A Novel Phenylpyrrolidine Derivative: Synthesis and Effect on Cognitive Functions in Rats with Experimental Ishemic Stroke” (Molecules, 2021).
